Reference: patent US20250011292A1, “NOVEL RHODANINE DERIVATIVES AND USES THEREOF” (priority 2021, published 2025)
Read-outs that look alike come from different tables or passages of the source.

Tests used:
[1] = tested on: SARS-CoV-2; assay: Inhibition of SARS-CoV-2 replication in infected Huh7 cells; assay type: cell-based; conditions: read-out: EC50, inhibition of viral replication against SARS-COV-2
Experimental: FIGS. 1A-1C are graphs showing the inhibition of SARS-CoV-2 replication in Huh-7 cells by BW-PS-108 (FIG. 1A), BW-PS-109 (FIG. 1B), and Compound 136 (FIG. 1C). The top line in FIGS. 1A and 1B represent cytotoxicity. Cell pellets from infected cells were collected at 48 hours after infection and viral RNA levels were measured by RT-PCR.
No solubility issues were encountered when studying their toxicity at 100 μM.
The potency levels of the compounds described herein compare favorably against remdesivir and molnupiravir. […] Further, the potency levels of the compounds described herein were also higher than Compound 136.

[2] = tested on: HeLa cells; assay: Light-induced and dark cytotoxicity, CCK-8 assay, HeLa cells; assay type: cell-based; conditions: for IC50: 24 hours, mean ± SD; for light-induced (photo-induced) cytotoxicity (in words): with or without blue light irradiation
Experimental: (§1) HeLa cells and MCF-7 cells were purchased from ATCC (Manassas, VA). HeLa cells were cultured in high glucose DMEM culture medium (Sigma-Aldrich; St. Louis, MO) with glutamine, without sodium pyruvate, and supplemented with 10% fetal bovine serum (FBS) and 1% penicillin and […]. MCF-7 cells were cultured in MEM culture medium (Sigma-Aldrich) supplemented with 10% FBS and 1% penicillin and […]. Cells were incubated in 37° C. incubator with 5% CO2. Under dim light, compounds were dissolved in DMSO to form 20 mM stock solution and serially diluted in 96-well plate with full culture medium to form the working solution with DMSO concentration being 0.5% in all wells. HeLa and MCF-7 cells were seeded in 96-well plate at a density of 10^5/100 μL/well and incubated overnight, and then the culture medium was replaced with 100 μL of the compound-loaded working solution. The dark treatment group was kept in the incubator for 24 hours. The exposure treatment group was allowed to incubate for 30 minutes, followed by exposure with blue light for the designated time (5 min for 0.45 J/cm^2). After exposure, cells were returned to the incubator and incubated for 24 hours. 10 μL CCK-8 solution (Dojindo, Japan) was added to the cells in each well and incubated for 2 hours. The optical density at 450 nm of each well was read with the Perkin-Elmer Vector 3 plate reader (USA). Cells treated with 0.5% DMSO were used as the vehicle control and 100 μL culture medium with 10 μL CCK-8 was used as the blank control. Cell viability was calculated as: […]
(§2) All tests were in triplicate, and the IC50 was calculated with non-linear regression of concentration and cell viability by Graphpad Prism.
BW-PS-101 was incubated with cervical carcinoma HeLa cell line under darkness. After incubation for 30 min to facilitate internalization, cells were exposed to a low-power blue LED array (470 nm, 1.5 mW/cm^2, as described above) for 5 minutes (total irradiation energy 0.45 J/cm^2) and incubated for an additional 24 hours under darkness followed by cell viability determination with CCK-8 assay.

[3] = tested on: MCF-7 cells; assay: Light-induced and dark cytotoxicity, CCK-8 assay, MCF-7 cells; assay type: cell-based; conditions: 24 hours, mean ± SD
Experimental: FIGS. 3A-3K are graphs showing the dose response of compounds as described herein in MCF-7 cells. […] The cells were treated and allowed the incubate for 24 hours (labeled in the figures as the compound name followed by “DARK”) or were treated, incubated for 30 minutes, exposed to light for a designated time, and then incubated for 24 hours (labeled in the figures as the compound name followed by “EXPO”).
as §1, §2
Additional compounds as described herein were tested. […] Light-induced cytotoxicity was then evaluated. […] PS-107, a compound with the furan ring replaced by phenyl, was synthesized as the structural mimetic control. […] All compounds were also tested against MCF-7 breast cancer cell line, which gave a similar trend of activity (Table 4).

[4] = Quantum yield ϕΔ in MeOH; assay type: physicochemical
[5] = tested on: early endosomes; assay: Fluorescence microscopy, endosome localization; assay type: cell-based; conditions: for accumulation / enrichment in endosomes: fluorescence microscopy / imaging studies
Experimental: FIG. 8 are fluorescence microscopy images of BW-PS-105 (first row), BW-PS-110 (second row), and BW-PS-120 (third row) localized in early endosomes.
The trimethoxy substituted analog BW-PS-105, which was fluorescent with an Ex/Em wavelength of 491 nm/574 nm, was incubated with HeLa cell at a concentration of 1 μM. […] Endosome enrichment of the photosensitizer led to the potency increase of about 5 folds. Targeting photosensitizers to the endosome efficiently induces cancer cell apoptosis by photodynamic therapy.

[6] = tested on: HeLa cells; assay: Light-induced and dark cytotoxicity, CCK-8 assay, HeLa cells; assay type: cell-based; conditions: light energy 1.8 J/cm^2
[7] = viral RNA by RT-PCR 48 hours after infection
[8] = blue light, exposure light energy density 0.45 J/cm^2, read-out: Hela cells Exposure IC50
[9] = dark, read-out: Hela cells Dark IC50
[10] = blue light, exposure light energy density 0.45 J/cm^2, read-out: MCF-7 cells Exposure IC50
[11] = dark, read-out: MCF-7 cells Dark IC50
[12] = Homo sapiens, HeLa, light or radiation study, blue light, exposure light energy density 0.45 J/cm^2, read-out: Hela cells Exposure IC50
[13] = Homo sapiens, HeLa, dark, read-out: Hela cells Dark IC50
[14] = Homo sapiens, MCF7, light or radiation study, blue light, exposure light energy density 0.45 J/cm^2, read-out: MCF-7 cells Exposure IC50
[15] = Homo sapiens, MCF7, dark, read-out: MCF-7 cells Dark IC50

O=C1C(=Cc2ccc(-c3ccc(C(F)(F)F)cc3)o2)SC(=S)N1CCN1CCOCC1 [BW-PS-109]
EC50 [1, 7]: 0.19 µM | IC50 [2, 8]: 0.63 ± 0.07 µM | IC50 [2, 9]: > 100 µM | IC50 [3, 10]: 0.53 ± 0.09 µM | IC50 [3, 11]: > 100 µM | ϕΔ MeOH) [4]: 0.115

COc1cc(-c2ccc(C=C3SC(=S)N(CCN4CCOCC4)C3=O)o2)cc(OC)c1OC [BW-PS-110]
IC50 [2, 8]: 1.74 ± 0.16 µM | IC50 [2, 9]: > 100 µM | IC50 [3, 10]: 1.25 ± 0.17 µM | IC50 [3, 11]: > 100 µM | co-localization with the endosome marker CellularLight endosomes-GFP ([5]; fluorescence microscopy): good co-localization | accumulation / enrichment in endosomes [5]: accumulation

CCCN1C(=O)/C(=C/c2ccc(-c3cc(OC)c(OC)c(OC)c3)o2)SC1=S [BW-PS-105, (Z)-3-propyl-2-thioxo-5-((5-(3,4,5-trimethoxyphenyl)furan-2-yl)methylene)thiazolidin-4-one]
IC50 [2, 12]: 2.13 ± 0.3 µM | IC50 [2, 13]: > 100 µM | IC50 [3, 14]: 2.71 ± 0.78 µM | IC50 [3, 15]: > 100 µM | ϕΔ MeOH) [4]: 0.028 | accumulation / enrichment in endosomes [5]: accumulation

CCCN1C(=O)/C(=C/c2ccc(-c3ccc(O)cc3)o2)SC1=S [BW-PS-103, (Z)-5-((5-(4-hydroxyphenyl)furan-2-yl)methylene)-3-propyl-2-thioxothiazolidin-4-one]
IC50 [2, 12]: 3.58 ± 0.13 µM | IC50 [2, 13]: > 100 µM | IC50 [3, 14]: 4.25 ± 0.17 µM | IC50 [3, 15]: ~100 µM | ϕΔ MeOH) [4]: 0.007

CCC(CC)COC(=O)[C@H](C)N[P@](=O)(OC[C@H]1O[C@@](C#N)(c2ccc3c(N)ncnn23)[C@H](O)[C@@H]1O)Oc1ccccc1 [remdesivir, reference compound]
EC50 ([1]; Severe acute respiratory syndrome coronavirus 2, Huh-7, viral RNA by RT-PCR 48 hours after infection): 0.7 µM

O=C1C(=Cc2ccc(-c3ccccc3)o2)SC(=S)N1CCN1CCOCC1 [BW-PS-108]
EC50 [1, 7]: 0.28 µM | IC50 [2, 8]: 0.95 ± 0.02 µM | IC50 [2, 9]: > 100 µM | IC50 [3, 10]: 1.22 ± 0.01 µM | IC50 [3, 11]: > 100 µM | ϕΔ MeOH) [4]: 0.086

CCCN1C(=O)/C(=C/c2ccc(-c3ccc(C(F)(F)F)cc3)o2)SC1=S [BW-PS-106, (Z)-3-propyl-2-thioxo-5-((5-(4-(trifluoromethyl)phenyl)furan-2-yl)methylene)thiazolidin-4-one]
IC50 [2, 12]: 2.96 ± 0.09 µM | IC50 [2, 13]: > 100 µM | IC50 [3, 14]: 2.58 ± 0.73 µM | IC50 [3, 15]: > 100 µM | ϕΔ MeOH) [4]: 0.182

CCCN1C(=O)/C(=C/c2ccc(-c3ccc(F)cc3)o2)SC1=S [BW-PS-102, (Z)-5-((5-(4-fluorophenyl)furan-2-yl)methylene)-3-propyl-2-thioxothiazolidin-4-one]
IC50 [2, 12]: 1.48 ± 0.14 µM | IC50 [2, 13]: > 100 µM | light-induced (photo-induced) cytotoxicity (in words) [2]: comparable activity as BW-PS-101 | IC50 [3, 14]: 1.26 ± 0.004 µM | IC50 [3, 15]: > 100 µM | ϕΔ MeOH) [4]: 0.075

N.N.[Cl][Pt][Cl] [Cisplatin, cisplatin, reference compound]
IC50 [2, 8]: 5.95 ± 0.17 µM | IC50 [2, 9]: 7.54 ± 0.45 µM | IC50 [3, 10]: 13.3 ± 1.45 µM | IC50 [3, 11]: 12.5 ± 2.86 µM

CCCN1C(=O)/C(=C/c2ccc(-c3ccc(OC)cc3)o2)SC1=S [BW-PS-104, (Z)-5-((5-(4-methoxyphenyl)furan-2-yl)methylene)-3-propyl-2-thioxothiazolidin-4-one]
IC50 [2, 12]: 2.71 ± 0.23 µM | IC50 [2, 13]: > 100 µM | IC50 [3, 14]: 2.87 ± 0.92 µM | IC50 [3, 15]: > 100 µM | ϕΔ MeOH) [4]: 0.015

CCCN1C(=O)/C(=C/c2cccc(-c3ccc(F)cc3)c2)SC1=S [BW-PS-107, (Z)-5-((4′-fluoro-[1,1′-biphenyl]-3-yl)methylene)-3-propyl-2-thioxothiazolidin-4-one]
IC50 [2, 12]: > 100 µM | light-induced (photo-induced) cytotoxicity (in words) [2]: did not show any photo-induced cytotoxicity | IC50 [3, 14]: > 100 µM

CCCN1C(=O)/C(=C/c2ccc(-c3ccccc3)o2)SC1=S [BW-PS-101, (Z)-5-((5-phenylfuran-2-yl)methylene)-3-propyl-2-thioxothiazolidin-4-one]
cytotoxicity of cells treated in the dark (in words) ([2]; HeLa, dark, up to 100 μM): did not show any cytotoxicity | IC50 [2, 12]: 1.38 ± 0.05 µM | IC50 [2, 13]: > 100 µM | IC50 [3, 14]: 0.74 ± 0.14 µM | IC50 [3, 15]: > 100 µM | ϕΔ MeOH) [4]: 0.109 | IC50 in the HeLa cell at higher light energy [6]: submicromolar range
